In patent publication US5635391A, “Isolated DNA encoding a nitrilase polypeptide, hosts containing, and expression thereof optionally assisted by a E. coli GroE chaperone polypeptide” (priority 1992, dated 1997):

How the values were obtained:
[1] = tested on: Comamonas testosteroni sp.; experiment: Enzymatic activity of Comamonas testosteroni sp. cells on adiponitrile; format: cell-based; conditions: 52.3 mM adiponitrile, pH 7, 25° C.; 1 U = 1 μmol of product formed per minute
Method: A cellular residue containing 13.1 mg of dry weight of cells was suspended in 2 ml of a 52.3 mM solution of adiponitrile in 50 mM potassium phosphate buffer, pH 7. The reaction was carried out at 25° C., with shaking, and the kinetics were followed by sampling. 5-Cyanovaleramide, adipamide, 5-cyanovalerate, adipamate and adipate were determined on each sample by high performance liquid chromatography (HPLC). […] The respective rates of formation of cyanovalerate and adipate were greater than 0.45 and equal to 0.15 U/mg of dry weight of cells (1 U is equal to 1 μmol of product formed per minute).

purified nitrilase [2] = target: T1, purified nitrilase (Comamonas testosteroni, UniProt Q59329); experiment: Activity of the purified nitrilase as a function of the pH; format: biochemical, Comamonas testosteroni sp.; conditions: substrate 10 mM, 25° C., U = μmol of cyanovalerate formed/h
T1 construct: about 280 kDa oligomer of about 38 kDa subunits
Method: The purified nitrilase was tested at different pH values on two substrates, adiponitrile and 5-cyanovalerate, under the conditions indicated in Table 2 below.
COMMON CONDITIONS: [substrate]=10 mM; buffer 10 mM; T 25° C.; [nitrilase]=12 μg/ml for cyanovalerate and 3 μg/ml for adiponitrile (fraction, step 6); U (adiponitrile)=μmol of cyanovalerate formed/h, U (cyanovalerate)=μmol of adipate formed/h.

purified nitrilase [3] = target: T1, purified nitrilase; experiment: Relative activity of the purified nitrilase on various nitriles; format: biochemical, Comamonas testosteroni sp.; conditions: acetate buffer 10 mM, pH 4; substrate 10 mM; 25° C.
Method: The activities of the purified nitrilase were measured on adiponitrile, 5-cyanovaleramide, 5-cyanovaleric acid, benzonitrile, propionitrile and acrylonitrile.
COMMON CONDITIONS: acetate buffer=10 mM, pH 4; substrate=10 mM; volume=3 ml; T=25° C.; reaction time=1 or 3 h; proteins: from 5 to 30 μg/ml.

E. coli TG1 = experiment: Nitrilase activity of control strain E. coli TG1; format: cell-based; conditions: no IPTG, whole cells, DW 15.5 g/l, 1 ml, substrate 50 mM, 25° C.
Method: (§1) The activities of these strains, induced or non-induced, are measured on adiponitrile and 5-cyanovalerate at different pH values and are compared with the negative control strains: E. coli TG1, E. coli TG1 (pXL2035) and Pseudomonas putida G2081.
(§2) The cultures are carried out under the conditions described in Table 4. During the exponential growth phase, one of the two cultures of the recombinant strain is induced with 1 mM IPTG; after 2 h at 37° C., this culture is treated.
(§3) The conditions of the specific activity measurements and the results are collated in Table 5.
(§4) COMMON CONDITIONS: [substrate]=50 mM; T=25° C.; buffer 50 mM; kinetics over 90 min for 1 to 3 and over 120 min for 4 to 8.
(§5) ABBREVIATIONS: W=whole cells; S=sonicated cells; Ua=μmols of cyanovalerate produced/h; Ub=μmols of adipate produced/h; AdN=adiponitrile; CVA=5-cyanovalerate. DW=dry weight.

E. coli TG1 pXL2087 = experiment: Nitrilase activity of recombinant strain E. coli TG1 pXL2087; format: cell-based; conditions: substrate 50 mM; for Activity Ua: DW 0.3 g/l, pH 4.2
Method: as §1, §2, §3, §4, §5

E. coli TG1 pXL2035 = experiment: Nitrilase activity of control strain E. coli TG1 pXL2035; format: cell-based; conditions: no IPTG; whole cells; DW 0.06 g/l; 1 ml; pH 7.0; substrate 50 mM
Method: as §1, §2, §3, §4, §5

E. coli TG1 pXL2158 = experiment: Nitrilase activity of recombinant strain E. coli TG1 pXL2158; format: cell-based; conditions: no IPTG; whole cells; DW 0.24 g/l; 1 ml; pH 7.0; substrate 50 mM
Method: as §1, §2, §3, §4, §5

E. coli TG1 pXL2035,2158 = experiment: Nitrilase activity of recombinant strain E. coli TG1 pXL2035,2158; format: cell-based; conditions: no IPTG; whole cells; DW 0.06 g/l; 1 ml; pH 7.0; substrate 50 mM
Method: as §1, §2, §3, §4, §5

P. putida G2081 pDSK519 = experiment: Nitrilase activity of control strain P. putida G2081 pDSK519; format: cell-based, Pseudomonas putida; conditions: no IPTG; whole cells; DW 0.3 g/l; 1 ml; pH 7.0; substrate 50 mM
Method: as §1, §2, §3, §4, §5

E. coli (pXL2087) = experiment: Activity of immobilized and free E. coli (pXL2087) cells on adiponitrile; format: cell-based; conditions: 25° C., pH 7, 50 mM adiponitrile
Method: The cells were fixed according to the following protocol:
The gram of cells was suspended in the polyazetidine solution. After homogenization, the resin was poured into the cell suspension. The whole was stirred with a spatula and then left to dry for 18 h, open to the air, under a hood. 4 ml or 1.3 g of biocatalyst were thus collected. The activities of the immobilized and free cells were determined at 25° C. and pH 7 on a 50 mM solution of adiponitrile. They are respectively 30 and 110 μmol of […]/h/mg of cells DW, from which a fixing yield of 26% is deduced.

[4] = tested on: E. coli (pXL2087) immobilized on resin; experiment: Hydrolysis of adiponitrile in a fixed bed reactor with immobilized E. coli (pXL2087); format: cell-based; conditions: 28° C., adiponitrile 50 mM, pH 7, flow rate 3.7 ml/h
Method: The half-life is determined in a continuously fed fixed bed reactor under the conditions indicated below:
T 28° C.; catalyst 0.5 g or 2 ml or 85 mg of cells (dry weight); [adiponitrile] 50 mM; phosphate buffer 50 mM, pH 7; flow rate 3.7±0.1 ml/h; column: diameter 1 cm, height 3 cm.
The initial activity of the cells was 1.5 μmol of adipate/h/mg of cells (dry weight). 66% of the initial activity is preserved after 32 days or 770 h.

T1 sequence (Q59329 entry or part of it): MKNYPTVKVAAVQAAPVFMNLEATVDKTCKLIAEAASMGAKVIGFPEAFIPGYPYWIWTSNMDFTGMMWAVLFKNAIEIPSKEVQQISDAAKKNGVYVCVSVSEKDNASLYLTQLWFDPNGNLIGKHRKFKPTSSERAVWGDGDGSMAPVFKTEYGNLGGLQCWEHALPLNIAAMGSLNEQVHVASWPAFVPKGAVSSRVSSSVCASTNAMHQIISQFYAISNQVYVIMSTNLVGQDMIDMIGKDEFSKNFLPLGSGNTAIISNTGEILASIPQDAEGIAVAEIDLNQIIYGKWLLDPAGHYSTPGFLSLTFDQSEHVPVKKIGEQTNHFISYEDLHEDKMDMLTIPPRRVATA

N#CCCCCC#N [Adiponitrile, adiponitrile]
rate of formation of adipate [1]: 0.15 U/mg of dry weight of cells | rate of formation of cyanovalerate [1]: greater than 0.45 U/mg of dry weight of cells | SPECIFIC ACTIVITY (purified nitrilase [2]; Acetate pH 3.0): 2,300 U/mg of protein | SPECIFIC ACTIVITY (purified nitrilase [2]; Acetate pH 4.0): 2,900 U/mg of protein | SPECIFIC ACTIVITY (purified nitrilase [2]; Acetate pH 4.5): 2,800 U/mg of protein | SPECIFIC ACTIVITY (purified nitrilase [2]; Acetate pH 5.0): 2,700 U/mg of protein | SPECIFIC ACTIVITY (purified nitrilase [2]; Phosphate pH 6.0): 2,900 U/mg of protein | SPECIFIC ACTIVITY (purified nitrilase [2]; Phosphate pH 7.0): 2,700 U/mg of protein | SPECIFIC ACTIVITY (purified nitrilase [2]; Phosphate pH 8.0): 2,800 U/mg of protein | RELATIVE ACTIVITY (purified nitrilase [3]): 100% | Activity Ub (E. coli TG1; pH 5.2): 0 μmols of adipate produced/h | Activity Ub (E. coli TG1; pH 7.0): 0 μmols of adipate produced/h | Activity Ub (E. coli TG1 pXL2087; +IPTG, sonicated cells, DW 1.4 g/l, 2 ml, pH 6.2): 17 μmols of adipate produced/h | Activity Ub (E. coli TG1 pXL2087; +IPTG, sonicated cells, DW 1.4 g/l, 2 ml, pH 7.0): 10 μmols of adipate produced/h | Activity Ua (E. coli TG1 pXL2087; +IPTG, whole cells, 1 ml): 159 μmols of cyanovalerate produce | Activity Ub (E. coli TG1 pXL2087; +IPTG, whole cells, DW 1.4 g/l, 1 ml, pH 4.3): 38 μmols of adipate produced/h | Activity Ub (E. coli TG1 pXL2087; +IPTG, whole cells, DW 1.4 g/l, 2 ml, pH 6.2): 18 μmols of adipate produced/h | Activity Ub (E. coli TG1 pXL2087; +IPTG, whole cells, DW 1.4 g/l, 2 ml, pH 7.0): 11 μmols of adipate produced/h | Activity Ub (E. coli TG1 pXL2087; no IPTG, sonicated cells, DW 1.0 g/l, 1 ml, pH 6.2): 3 μmols of adipate produced/h | Activity Ub (E. coli TG1 pXL2087; no IPTG, sonicated cells, DW 1.0 g/l, 1 ml, pH 7.0): 4 μmols of adipate produced/h | Activity Ua (E. coli TG1 pXL2087; no IPTG, whole cells, 1 ml): 75 μmols of cyanovalerate produce | Activity Ub (E. coli TG1 pXL2087; no IPTG, whole cells, DW 1.2 g/l, 2 ml, pH 4.3): 16 μmols of adipate produced/h | Activity Ub (E. coli TG1 pXL2087; no IPTG, whole cells, DW 1.2 g/l, 2 ml, pH 6.2): 11 μmols of adipate produced/h | Activity Ub (E. coli TG1 pXL2087; no IPTG, whole cells, DW 1.2 g/l, 2 ml, pH 7.0): 3.4 μmols of adipate produced/h | Activity Ua (E. coli TG1 pXL2035): 0 μmols of cyanovalerate produce | Activity Ub (E. coli TG1 pXL2035): 0 μmols of adipate produced/h | Activity Ua (E. coli TG1 pXL2158): 270 μmols of cyanovalerate produce | Activity Ua (E. coli TG1 pXL2035,2158): 1500 μmols of cyanovalerate produce | Activity Ua (P. putida G2081 pDSK519): 0 μmols of cyanovalerate produce | activity of the free cells (E. coli (pXL2087)): 110 μmol of 2-cyanovalerate/h/mg of cells DW | activity of the immobilized cells (E. coli (pXL2087)): 30 μmol of 2-cyanovalerate/h/mg of cells DW | initial activity of the cells [4]: 1.5 μmol of adipate/h/mg of cells (dry weight)
